Assays:
mini pigs = assay: 39-week GLP repeated dermal dose toxicity and toxicokinetics study with 4-week recovery; assay type: in vivo; settings: 5, 12.5 and 25 mg/kg dermal, 39 weeks
[1] = Acute maximum tolerated dose study, subcutaneous injection; parameters: species or system Beagle dogs; settings: beagle, dog, in vivo, sc
[2] = tested on: Osteoarthritis Induced by Transection of the Anterior Cruciate Ligament (ACL); assay: Osteoarthritis induced by transection of the anterior cruciate ligament (I), treatment 4-10 weeks post-surgery; assay type: in vivo, SD Rats; settings: transdermal; did not reach statistical significance
[3] = tested on: Subjects with Mild to Moderate Osteoarthritis of the Knee; assay: Phase 2 study: safety; assay type: in vivo, human
Source text: Safety assessments will be performed at each visit and will include assessment of AEs, vital signs (blood pressure, pulse rate, and oral temperature), clinical laboratories, physical examination, skin irritation, and electrocardiograms (ECGs) as indicated in the study flow chart, Table 14.
Safety assessments will include AEs, vital signs (blood pressures, pulse rate, and oral temperature), clinical laboratories, physical examination, skin irritation, and ECGs at various time points during the study as indicated in the study flow chart.
Adverse events of interest include: local skin reactions around the treated knee(s), upper stomach pain, GI bleeding, serious cardiovascular side effects (e.g., thrombotic events, myocardial infarction, or stroke), jaundice, elevated liver function tests, and nausea.
Safety analyses will be conducted on the SAS. Safety parameters will be listed and summarized using standard descriptive statistics, as appropriate. No formal statistical analyses are planned.

[4] = tested on: Collagen II induced arthritis; assay: Collagen II induced arthritis; assay type: in vivo, Lewis rats; settings: 10, 30 and 90 mg/kg daily, topical
Sprague Dawley rats = assay: Respiratory safety pharmacology study; assay type: in vivo; settings: single dermal dose 50, 250, 750 mg/kg
rats = assay: Acute dermal maximum tolerated dose study; assay type: in vivo; settings: single dermal dose 1000 mg/kg
[5] = Acute dermal maximum tolerated dose study; assay type: in vivo, Rats; settings: both sexes, rat, in vivo, topical or ocular, 1000 mg/kg; once, dermal; male and female rats
[6] = In vitro half-life in plasma; assay type: in vitro ADME
[7] = 14-day repeated dermal dose toxicity study; parameters: species or system Rats; settings: rat, in vivo, topical or ocular; 14-day dermal
[8] = tested on: osteoarthritis of the knee; assay: Second Phase 2 study: WOMAC stiffness subscale score; assay type: in vivo, human; settings: Low Dose (2 spray/knee, 8.75 mg/knee) Cohort
[9] = pig, in vivo, topical or ocular, 9 mg/kg

SMILES: CCN(CC)CCOC(=O)C(C)c1ccc(CC(C)C)cc1 (stereo not shown) [2-(diethylamino)ethyl 2-(4-isobutylphenyl)propionate]
- local or systemic adverse effects (mini pigs): mini pigs with 4-week recovery was done and no test article-related local
- MTD [1]: 500 mg/kg
- severity of osteoarthritic degeneration (histopathology) [2]: showed recognizable reduction in the severity of osteOArthritic
- safety and tolerability ([3]; all three doses (8.75, 17.5, 35 mg/knee BID)): appeared to be safe and were generally well tolerated
- gastrointestinal disorder incidences (very mild) ([3]; whole study): 12 incidences
- skin irritation incidences ([3]; whole study, total): 8 incidences
- onset of the disease [4]: postponed the onset of the disease.
- respiratory changes (Sprague Dawley rats): 250, and 750 mg/kg of ibuprofenamine were not associated with respiratory
- tolerability (rats): 2-(4-isobutylphenyl)propionate to rats at 1000 mg/kg was well tolerated
- MTD [5]: > 1000 mg/kg
- fraction metabolized to ibuprofen in any human tissue (except skin) [6]: > 99.9%
- half-life ([6]; in plasma, read-out: in vitro T1/2): ~4 min
- NOAEL at 14 days [7]: 250 mg/kg/day
- WOMAC Joint Stiffness Subscale Score, Follow-up, Avg. ([8]; Avg. of all patients (blinded), Follow-up): 41.4
- WOMAC Joint Stiffness Subscale Score, Day 1 ([8]; individual patient (blinded), Day 1): 60.5
- WOMAC Joint Stiffness Subscale Score, Week 8 ([8]; individual patient (blinded), Week 8): 64.5
- cartilage AUClast [9]: 23910 ng·h/mL
- muscle AUClast [9]: 35890 ng·h/mL
- plasma AUClast [9]: 1516 ng·h/mL

Reference: patent US20240024273A1, “TOPICAL ADMINISTRATION OF 2-(DIETHYLAMINO)ETHYL 2-(4-ISOBUTYLPHENYL)PROPRIONATE FOR TREATMENT OF DISEASES” (TECHFIELDS PHARMA CO., LTD., priority 2020, published 2024)
